Data as given in patent US10822315B2, “5-benzylidene-4-oxazolidinones” (NORTH CAROLINA STATE UNIVERSITY, priority 2016, dated 2020).
In brackets after ≈: the same amount, converted by molar mass.

Legend:
Format in all cases: cell-based
MRSA ATCC 33591 = experiment: Broth microdilution MIC determination; details: Staphylococcus aureus, Table 1, read-out: Antimicrobial Activity MIC
Method: (§1) General Information. Methicillin-resistant Staphylococcus aureus (MRSA) strains were obtained from the Laboratory of Professor Christian Melander (NCSU) ATCC (33591, BAA 44, BAA 1685, BAA 1770, BAA 43 300) and colonies were grown on solid media as instructed. Mueller-Hinton broth (MHB, 211443-BD), tryptic soy broth (TSB, Remel: R455052) and D-glucose (CAS: 492-62-6) were purchased from Fisher Scientific. Tryptic soy agar (TSA, cat. #22091) and Linezolid (cat. # P70014) were purchased from Sigma-Aldrich. Bacteria for biofilm inhibition and dispersion assays were cultured overnight in TSBG (tryptic soy broth with 0.5% glucose supplement). All assays were run in duplicate and repeated at least two separate times for MIC assays and at least four separate times for biofilm inhibition and dispersion assays. All compounds were dissolved molecular biology grade DMSO as 100 mM stock solutions and further diluted to 10 and 1 mM stock solutions as needed. Optical densities were measured using a Thermo Scientific Genesys 20 spectrophotometer. Data for biofilm inhibition and dispersion assays was collected using a BioTek ELx808 Microplate Reader. All graphs were generated and analyzed using GraphPad Prism 7.
(§2) Broth microdilution protocol for minimum inhibition concentration (MIC) determination. Studies were performed using the standard method prescribed by the Clinical and Laboratory Standards Institute (CLSI) M07-A8, Vol. 29 (2), which is hereby incorporated herein by reference. Briefly, fresh Mueller-Hinton broth (MHB) ˜3 ml, was inoculated (5×10^5 CFU mL^−1) with MRSA (ATCC 33591) methicillin-resistant Staphylococcus aureus. The resulting bacterial suspension was aliquoted (1 mL) into culture tubes and test compound (10 mM DMSO stock solution) was added to reach the final concentration of the interest. Bacteria not treated with the antimicrobial compound served as the control. Rows 2-12 of a 96-well microtiter plate were filled with remaining bacterial subcultures. The samples containing test compound were aliquoted (200 μL) into the first row wells of the microtiter plate (2 wells per compound). Row 1 wells were mixed 6-8 times and 100 μL was transferred down to row 2. Row 2 wells were mixed 6-8 times, followed by a 100 μL transfer from row 2 down to row 3. The rest of the rows of the plate were serially diluted in similar fashion. The plate was covered with sealing tape for 96-well plates (ThermoFisher) and incubated under stationary conditions at 37° C. A duplicate of the plate was prepared.

MRSA Strain 1685 = experiment: Broth microdilution MIC determination; details: Staphylococcus aureus
Method: as §1, §2

MRSA Strain 1770 = experiment: Broth microdilution MIC determination; details: Staphylococcus aureus
Method: as §1, §2

MRSA Strain 43300 = experiment: Broth microdilution MIC determination; details: Staphylococcus aureus
Method: as §1, §2

planktonic bacteria = experiment: Growth curve analysis

SMILES	MIC (MRSA ATCC 33591) [µg/mL]	MIC (MRSA Strain 1685) [µg/mL]	MIC (MRSA Strain 1770) [µg/mL]	MIC (MRSA Strain 43300) [µg/mL]	growth curve versus untreated control (in words) (planktonic bacteria; 1 μM)	growth curve versus untreated control (in words) (planktonic bacteria; 5 μM)
CCCCC(Cl)(Cl)C1NC(=O)/C(=C/c2ccc(C(F)(F)F)cc2)O1 (stereo not drawn) [Compound 1, (Z)-2-(1,1-dichloropentyl)-5-(4-(trifluoromethyl)benzylidene)oxazolidin-4-one]	12 (≈ 31.4 µM)	16 (≈ 41.9 µM)	16 (≈ 41.9 µM)	8 (≈ 20.9 µM)	substantial inhibition of growth in the first 8 hours	substantial inhibition of growth in the first 8 hours
O=C1NC(C(Cl)(Cl)Cc2ccccc2)O/C1=C\c1ccc(C(F)(F)F)cc1 (stereo not drawn) [Compound 2, (Z)-2-(1,1-dichloro-2-phenylethyl)-5-(4-(trifluoromethyl)benzylidene)oxazolidin-4-one]	6 (≈ 14.4 µM)	8 (≈ 19.2 µM)	8 (≈ 19.2 µM)	8 (≈ 19.2 µM)	modest deviation from the untreated control	moderate growth inhibition in the first 8 hours
